Data set [1] deals with T1, Signal transducer and activator of transcription 3 (Homo sapiens, UniProt P40763). The data set can be described thus: Inhibition of 5-carboxyfluorescein-GY(PO3H2)LPQTV-NH2 peptide probe binding to human STAT3 SH2 domain preincubated for 30 mins followed by probe addition and measured after 1 hr by fluorescence polarization assay.
The test system of data set [2] is MDA-MB-231. Briefly: Induction of apoptosis in human MDA-MB-231 cells assessed as late apoptotic cells at 1 uM measured after 48 hrs by annexin V-FITC and PI staining based flow cytometry analysis (reference value: 3.1%). It counts as functional.
Data set [3] is described as follows: Toxicity in Balb/c mouse assessed as effect on spleen at 50 mg/kg by hematoxylin and eosin staining based histopathological analysis. Type of data set: organism-based. The note with it: in vivo.
A short description of data set [4]: Metabolic stability in mouse liver microsomes assessed as half life in presence of NADPH/UDPGA. Type of data set: ADME, Microsome.
The nature of data set [5]: Oral bioavailability in ICR mouse at 50 mg/kg measured upto 96 hrs by HPLC-MS/MS analysis. Type of data set: ADME, organism-based. The note with it: in vivo.
The subject of data set [6] is MDA-MB-231. The data set can be described thus: Induction of apoptosis in human MDA-MB-231 cells assessed as early apoptotic cells at 5 uM measured after 48 hrs by annexin V-FITC and PI staining based flow cytometry analysis (reference value: 6.7%). Type of data set: functional.
For data set [7], the system named is DU-145. The data set can be described thus: Antitumor activity against human DU-145 cells xenografted in Balb/c nude mouse model assessed as reduction in phosphorylated STAT3 at Y705 residue by immunoblotting analysis. It counts as functional, cell-based.
For data set [8], the system named is DU-145. Briefly: Antiproliferative activity against human DU-145 cells assessed as inhibition of cell growth measured after 96 hrs by MTT assay. Type of data set: functional, cell-based. The note with it: DU-145, 96 h.
Data set [9] concerns MDA-MB-231. The data set can be described thus: Induction of apoptosis in human MDA-MB-231 cells assessed as late apoptotic cells at 10 uM measured after 48 hrs by annexin V-FITC and PI staining based flow cytometry analysis (reference value: 3.1%). Type of data set: functional.
For data set [10], the system named is PANC-1. The data set can be described thus: Antiproliferative activity against human PANC-1 cells assessed as inhibition of cell growth measured after 96 hrs by MTT assay. Type of data set: functional, cell-based. The following applies: PANC-1, 96 h.
Data set [11] can be described thus: Clearance in ICR mouse at 50 mg/kg, po measured upto 96 hrs by HPLC-MS/MS analysis. It counts as ADME, organism-based. The following applies: in vivo.
For data set [12], the target named is T1, Signal transducer and activator of transcription 3. Briefly: Inhibition of STAT3 dimerization in human DU-145 cells assessed as increase in amount of STAT3 monomer at upto 10 uM measured after 12 hrs. Type of data set: cell-based.
Data set [13] has as its target T2, Signal transducer and activator of transcription 5A (Homo sapiens) (UniProt P42229).
T2 sequence (whole entry): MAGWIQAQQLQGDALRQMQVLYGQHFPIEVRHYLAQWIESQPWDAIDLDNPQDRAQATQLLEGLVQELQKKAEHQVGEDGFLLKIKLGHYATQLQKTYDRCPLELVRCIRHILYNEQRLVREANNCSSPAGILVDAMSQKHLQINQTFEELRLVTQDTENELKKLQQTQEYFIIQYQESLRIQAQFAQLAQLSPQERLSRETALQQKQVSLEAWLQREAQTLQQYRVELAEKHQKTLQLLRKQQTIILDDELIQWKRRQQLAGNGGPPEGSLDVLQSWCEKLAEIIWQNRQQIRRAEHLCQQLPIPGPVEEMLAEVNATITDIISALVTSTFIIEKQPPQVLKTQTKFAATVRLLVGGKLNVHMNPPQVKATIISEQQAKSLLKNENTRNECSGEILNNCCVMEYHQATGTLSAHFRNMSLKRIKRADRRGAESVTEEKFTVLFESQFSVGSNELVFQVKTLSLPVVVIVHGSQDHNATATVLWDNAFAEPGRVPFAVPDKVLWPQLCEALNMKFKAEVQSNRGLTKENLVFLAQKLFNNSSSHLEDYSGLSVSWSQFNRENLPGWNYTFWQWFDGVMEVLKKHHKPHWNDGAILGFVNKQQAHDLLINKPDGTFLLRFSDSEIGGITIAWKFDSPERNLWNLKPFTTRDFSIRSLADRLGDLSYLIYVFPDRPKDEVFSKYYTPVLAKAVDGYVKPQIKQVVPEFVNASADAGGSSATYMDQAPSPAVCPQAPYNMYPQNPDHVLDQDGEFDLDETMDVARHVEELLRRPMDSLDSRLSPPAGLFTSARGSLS
The data set can be described thus: Inhibition of STAT5 phosphorylation in human DU-145 cells at 10 uM measured after 24 hrs by Western blot analysis. It counts as cell-based.

In data set [14] the test system is MDA-MB-231. The data set can be described thus: Induction of cell cycle arrest in human MDA-MB-231 cells assessed as accumulation of cells at G0/G1 phase measured after 24 hrs by PI staining based flow cytometry analysis. Type of data set: functional. The note with it: dose <= 10.0 µM.
Data set [15] is described as follows: Toxicity in Balb/c mouse assessed as effect on heart at 50 mg/kg by hematoxylin and eosin staining based histopathological analysis. Type of data set: organism-based. The following applies: in vivo.
Data set [16] deals with T1, Signal transducer and activator of transcription 3. The data set can be described thus: Inhibition of STAT3 nuclear translocation in human DU-145 cells at 5 uM measured after 24 hrs by immunofluorescence assay. It counts as cell-based.
Data set [17] is described as follows: AUC (0 to infinity) in ICR mouse at 50 mg/kg, po measured upto 96 hrs by HPLC-MS/MS analysis. It counts as ADME, organism-based. Set-up: time < 96 hrs, dose 50 mg/kg, route po. The following applies: in vivo.
Data set [18] is described as follows: Half life in ICR mouse at 5 mg/kg, iv measured upto 96 hrs by HPLC-MS/MS analysis. Type of data set: ADME, organism-based. The following applies: in vivo.
Data set [19] in a line: Clearance in ICR mouse at 5 mg/kg, iv measured upto 96 hrs by HPLC-MS/MS analysis. Type of data set: ADME, organism-based. The following applies: in vivo.
Data set [20] addresses T3, Signal transducer and activator of transcription 1-alpha/beta (Homo sapiens) (UniProt P42224).
T3 sequence (whole entry): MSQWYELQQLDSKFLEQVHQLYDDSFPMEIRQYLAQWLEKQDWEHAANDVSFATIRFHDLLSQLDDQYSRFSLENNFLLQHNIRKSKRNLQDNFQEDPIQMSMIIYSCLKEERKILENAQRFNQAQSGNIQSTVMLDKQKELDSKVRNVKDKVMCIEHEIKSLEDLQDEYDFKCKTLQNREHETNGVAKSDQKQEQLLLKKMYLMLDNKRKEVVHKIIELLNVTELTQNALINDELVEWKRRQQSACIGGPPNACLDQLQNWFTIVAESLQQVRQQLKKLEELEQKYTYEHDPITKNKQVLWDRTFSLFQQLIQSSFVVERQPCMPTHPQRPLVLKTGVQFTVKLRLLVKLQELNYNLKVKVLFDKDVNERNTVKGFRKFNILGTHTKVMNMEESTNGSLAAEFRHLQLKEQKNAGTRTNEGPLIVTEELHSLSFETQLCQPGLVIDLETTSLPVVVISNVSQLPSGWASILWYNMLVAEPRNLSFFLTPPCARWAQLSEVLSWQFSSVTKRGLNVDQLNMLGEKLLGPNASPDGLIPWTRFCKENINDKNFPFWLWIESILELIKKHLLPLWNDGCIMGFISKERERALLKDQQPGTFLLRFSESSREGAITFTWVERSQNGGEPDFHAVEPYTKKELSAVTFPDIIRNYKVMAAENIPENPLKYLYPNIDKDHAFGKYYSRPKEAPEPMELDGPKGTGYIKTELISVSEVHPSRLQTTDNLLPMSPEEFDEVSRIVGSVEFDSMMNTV
The data set can be described thus: Inhibition of STAT1 phosphorylation in human DU-145 cells at 10 uM measured after 24 hrs by Western blot analysis. Type of data set: cell-based.

Data set [21] can be described thus: Tmax in ICR mouse at 50 mg/kg, po measured upto 96 hrs by HPLC-MS/MS analysis. Type of data set: ADME, organism-based. The note with it: in vivo.

Each structure is given as a SMILES string. pIC50: −log10 of the molar value. Activity calls are given as the source filed them. The calls are words filed in the database; no cut-off is given here.

Experimental findings from ChEMBL document CHEMBL5321275, “Discovery, Optimization, and Evaluation of Novel N-(Benzimidazol-5-yl)-1,3,4-thiadiazol-2-amine Analogues as Potent STAT3 Inhibitors for Cancer Treatment” (J Med Chem, 2023) are described below.

T1 sequence (P40763 whole entry, the tested form may be a part): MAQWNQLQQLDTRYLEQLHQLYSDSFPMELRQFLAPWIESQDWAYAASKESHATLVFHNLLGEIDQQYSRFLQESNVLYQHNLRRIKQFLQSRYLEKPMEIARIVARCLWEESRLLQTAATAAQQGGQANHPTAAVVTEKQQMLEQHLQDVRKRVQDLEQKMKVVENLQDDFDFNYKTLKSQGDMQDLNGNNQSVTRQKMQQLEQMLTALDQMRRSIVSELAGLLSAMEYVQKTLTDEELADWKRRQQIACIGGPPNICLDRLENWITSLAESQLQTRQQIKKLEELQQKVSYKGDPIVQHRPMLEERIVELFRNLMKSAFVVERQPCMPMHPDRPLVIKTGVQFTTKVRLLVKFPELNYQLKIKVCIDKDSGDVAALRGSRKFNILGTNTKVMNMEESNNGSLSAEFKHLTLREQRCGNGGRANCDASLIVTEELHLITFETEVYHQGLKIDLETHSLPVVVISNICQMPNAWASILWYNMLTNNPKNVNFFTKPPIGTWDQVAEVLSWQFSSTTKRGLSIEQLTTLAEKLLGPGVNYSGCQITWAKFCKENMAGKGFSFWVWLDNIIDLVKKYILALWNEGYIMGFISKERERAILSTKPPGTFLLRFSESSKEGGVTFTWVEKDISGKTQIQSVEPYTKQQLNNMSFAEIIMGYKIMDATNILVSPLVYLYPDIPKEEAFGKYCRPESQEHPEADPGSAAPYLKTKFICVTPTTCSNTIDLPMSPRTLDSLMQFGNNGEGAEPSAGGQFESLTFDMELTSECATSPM

Turning to `CN1CCN(c2cc3c(cc2Nc2nnc(-c4ccc(C(F)(F)F)cc4)s2)nc(-c2ccc(F)cc2)n3C2CC2)CC1`, the values for the pIC50 in data set [1], in [8] and in data set [10] were 4.80, 5.53 and 5.61, respectively. The Activity in data set [2] is 5.1%; in [3], “Non-Toxic”; in [6], 12.1%; in [9], 20.1%; in data set [14], “Dose-Dependent Effect”; in data set [15] it was “Non-Toxic”. The half-life in [4] is 6.28 h; in data set [18], 9 h. This compound also had a bioavailability in data set [5] of 52%. Further, the result in [7] was Active. In addition, the CL/F in [11] was 46.8 mL/min/kg. The inhibition result in data set [12] and in [16] was “Active” in each case. The inhibition result in data set [13] and in data set [20] was “inactive” in each case. In data set [17], the AUC(0-inf) stood at 17800 ng·h/mL. For the same compound, the clearance in [19] is 24.2 mL/min/kg. The Tmax in [21] was determined as 4.67 h.
